Assay results taken from patent publication US8404829B2, “Predictive and therapeutic markers in ovarian cancer” (The Regents of the University of California, priority 2005, dated 2013).
Entries after “also recorded” stand apart in the source; their conditions may differ.

Experiments:
[1] = tested on: CAOV4 and HEY cell lines in which PVT1 and MYC are highly amplified; experiment: Cell cycle / proliferation after siRNA treatment (BrdUrd/DNA distributions), PVT1/MYC amplified lines; format: cell-based, human; conditions: for cell cycle progression (BrdUrd/DNA distributions): CAOV4 and HEY, 48 hours after siRNA treatment, FIG. 7A; for cell proliferation / G1-phase block: ovarian cancer cell lines in which PVT1 is amplified and over expressed
Experimental: (§1) In this system, stock cell lines are transferred from flasks and 5×10^4 cells will be seeded into 24-well cell culture plates and transferred to a multi-plate incubator. Individual wells are treated with 40-120 nM siRNA and 2.5-7.5 μg/ml Lipofectamine 2000 (Invitrogen) in […] Opti-MEM reduced serum medium (Invtrogen) for 4 hours (with or without drug) in order to induce the necessary experimental perturbations. After 4 hours, the Opti-MEM are replaced with complete culture medium and the cells cultured for an additional 44 hours. Cell lysates then are extracted and re-formatted into standard 96-well microtiter plates using a Tecan multi-channel liquid handling system. These plates are then fed separately into RNA transcript, protein expression or cell analysis pipelines. For cellular profiling, treated cell culture plates are transported to a Cellomics High Content Imaging system (see below). Transcript profiling is accomplished using Affymetrix U133A/B arrays processed using the Affymetrix High Throughput Analysis system (installed at LBNL in December 2004 under an Affymetrix early access agreement). Protein profiling is accomplished using reverse phase protein at MD Anderson using lysate array technology in cases where suitable antibodies exist. Important pathway proteins are assessed using western blotting in cases where antibodies are not sufficiently specific for use on protein lysate arrays.
(§2) A Becton Dickinson cytometer can be used to measure DNA/BrdUrd distributions and/or DNA distributions during treatment. […] For BrdUrd/DNA analysis, cells are pulse labeled for 30 min. with 1 μM BrdUrd, fixed in 70% ethanol, treated with RNase, denatured and stained with propidium iodide (PI) and a fluorescently labeled antibody against BrdUrd as described in Dolbeare, F., Gratzner, H., Pallavicini, M. G. & Gray, J. W. Flow cytometric measurement of total DNA content and incorporated bromodeoxyuridine. Proc Natl Acad Sci USA 80, 5573-7 (1983), and placed in 96 well trays for analysis.
In FIGS. 7B and 7C, the BrdU data is measuring proportions of cell cycle phases of ovarian cancer cell lines that overexpress PVT1. Referring to the graphs in FIGS. 7B and 7C, cells were left untreated (control, blue bar), treated with lipofectamine 2000 (lipo, purple bar) and green fluorescent protein (GFP; green bar) as controls or treated with PVT1 siRNA (PVT1 si, yellow bar, SEQ ID NO: 3 and 4). The error bars are standard deviation values from more than one experiment. If there are no error bars on a column, it means the experiment was not repeated.

[2] = tested on: OV90, in which MYC and PVT1 are not amplified; cell lines not expressing PVT1; experiment: Cell cycle / growth after siRNA treatment (BrdUrd/DNA distributions), unamplified lines; format: cell-based, human; conditions: for cell cycle progression (BrdUrd/DNA distributions): OV90 (unamplified), 48 hours after siRNA treatment, FIG. 7A
[3] = tested on: HEY and CAOV4 cells; experiment: Apoptosis after siRNA treatment (phase contrast, PI DNA content distribution), PVT1 amplified lines; format: cell-based, human; conditions: for apoptosis induced DNA fragments (DNA distribution below the G1/diploid peak): CAOV4 cells, FIG. 9A; for induction of apoptosis / cell death: ovarian cancer cell lines in which PVT1 is amplified and over expressed
Experimental: as §1, §2
Referring again to FIG. 8, an additional measure of apoptosis can include staining with an Alexa Fluor® 488 conjugate of annexin V (Molecular Probes) and staining with propidium iodide (PI). PI is impermeable to apoptotic cells and live cells, but can enter and bind nucleic acids in necrotic cells. An apoptotic index can be assessed by measuring the fraction of “sub diploid” cells after staining for DNA content using PI as illustrated in FIG. 8A. Cells are fixed in 70% ethanol, treated with RNAse and placed in 96-well trays for DNA content analysis.

[4] = tested on: HEYA8 or SKOV3ip1 tumors; experiment: Therapeutic study in ovarian tumor xenografts (tumor size); format: in vivo, mice; conditions: siRNA 150 μg/kg twice weekly, paclitaxel 100 μg weekly, four weeks
Experimental: For therapeutic studies, mice were injected with HEYA8 or SKOV3ip1 cells. One week later, mice were treated twice weekly with DOPC-EPHA2 siRNA (150 μg/kg) alone or in combination with weekly paclitaxel (100 μg), for four consecutive weeks.

[5] = tested on: cell lines that do not amplify or over express PVT1; experiment: Apoptosis / cell death after PVT1 siRNA, lines without PVT1 amplification; format: cell-based, human; conditions: cell lines in which PVT1 is not amplified or over expressed
Experimental: as §1, with “Transcript profiling is accomplished using Affymetrix U133A/B arrays processed using the Affymetrix High Throughput Analysis system (installed at LBNL in December 2004 under an Affymetrix early access agreement). Protein profiling is accomplished using reverse phase protein at MD Anderson using lysate array technology in cases where suitable antibodies exist.” left out
Referring again to FIG. 8, an additional measure of apoptosis can include staining with an Alexa Fluor® 488 conjugate of annexin V (Molecular Probes) and staining with propidium iodide (PI). […] An apoptotic index can be assessed by measuring the fraction of “sub diploid” cells after staining for DNA content using PI as illustrated in FIG. 8A. […]

[6] = tested on: ovarian cancer cell lines that amplify PVT1; experiment: High content imaging for apoptosis (Cellomics Multiparameter Apoptosis 1 HitKit), lines that amplify PVT1; format: cell-based, human
Description: (§3) A high content fluorescence image analysis system at LBNL (Cellomics, KineticScan) was used to characterize cellular responses to siRNA inhibitors including proliferation rate, apoptotic rate and motility. The KineticScan is an automated imaging instrument that scans through the bottom of clear-bottom 24-well plates, focuses on a field of cells, and acquires images at each selected color channel. The Cellomics software identifies and measures individual features and structures within each cell in a field of cells, so that up to hundreds of cell samples can be analyzed in parallel. The software then tabulates and presents the results in user-defined formats.
(§4) Referring to FIG. 10, PVT siRNA-treated ovarian cell lines were analyzed by high content imaging for apoptosis. Apoptotic cells were detected based on nuclear morphology, mitochondrial mass and/or membrane potential, and f-actin content following staining with the Cellomics Multiparameter Apoptosis 1 HitKit™. Nuclear morphology (i.e., condensation or fragmentation) are measured after staining with Hoechst 33342. Mitochondrial membrane potential and mitochondrial mass are measured after staining with MitoTracker® Red. F-actin is measured after staining with an Alexa Fluor® 488 conjugate of phalloidin (Ax488-ph). Changes in the actin cytoskeleton have been used as a potential parameter related to apoptotic changes. […]

[7] = tested on: ovarian cancer cell lines that do not amplify PVT1; experiment: High content imaging for apoptosis (Cellomics Multiparameter Apoptosis 1 HitKit), lines that do not amplify PVT1; format: cell-based, human
Description: as §3, §4

Compound: MYC siRNA: siRNA against c-myc; sense GAGGCGAACACACAACGUC (SEQ ID NO: 18), antisense GACGUUGUGUGUUCGCCUC (SEQ ID NO: 19) (listed as RNA, chemistry not given here)
- cell cycle progression (BrdUrd/DNA distributions) [1]: strongly inhibited
- cell proliferation / G1-phase block [1]: blocks cells in the G1-phase of the cell cycle
- cell cycle progression (BrdUrd/DNA distributions) [2]: not in the unamplified line
- apoptosis induced DNA fragments (DNA distribution below the G1/diploid peak) [3]: not after MYC inhibition
- induction of apoptosis / cell death [3]: does not induce apoptosis

Compound: CC(=O)O[C@H]1C(=O)[C@@]2(C)[C@H]([C@H](OC(=O)c3ccccc3)[C@]3(O)C[C@H](OC(=O)[C@H](O)[C@@H](NC(=O)c4ccccc4)c4ccccc4)C(C)=C1C3(C)C)[C@]1(OC(C)=O)CO[C@@H]1C[C@@H]2O [paclitaxel]
- effect on tumor size [4]: effective in reducing tumor size

Compound: PVT1 siRNA: siRNA against PVT1; sense CAGCCAUCAUGAUGGUACU (SEQ ID NO: 3), antisense AGUACCAUCAUGAUGGCUG (SEQ ID NO: 4) (listed as RNA, chemistry not given here)
- cell cycle progression (BrdUrd/DNA distributions) [1]: strongly inhibited
- S phase proportion (BrdU) ([1]; cell lines overexpressing PVT1, vs untreated, lipofectamine 2000 and GFP controls, FIG. 7B): much shorter than in the 3 control columns
- cell proliferation / G1-phase block [1]: inhibit cell proliferation by blocking cell in the G1-phase of the cell cycle; also recorded: blocks cells in the G1 phase of the cell cycle
- cell proliferation / G1-phase block ([1]; listed as siRNAs against PVT1): particularly effective in inhibiting proliferation
- cell cycle progression (BrdUrd/DNA distributions) [2]: not in the unamplified line
- growth inhibition ([2]; cell lines that do not amplify or over express PVT1): do not inhibit growth
- effect on cell cycle (S phase, BrdU) ([2]; ovarian cancer cell lines not expressing PVT1, FIG. 7C): does not affect the cell cycle
- apoptosis induced DNA fragments (DNA distribution below the G1/diploid peak) [3]: Apoptosis induced DNA fragments are present after PVT1 inhibition
- apoptotic blebbing (phase contrast photomicrographs) ([3]; HEY cells, treated 48 hours, FIG. 8): apoptotic blebbing after siRNA inhibition of PVT1 is apparent
- induction of apoptosis / cell death [3]: inducing cell death; also recorded: induces apoptosis
- induction of apoptosis / cell death ([3]; listed as siRNA against PVT1): induced apoptosis
- induction of apoptosis / cell death ([3]; listed as siRNAs against PVT1): inducing apoptosis
- induction of apoptosis / cell death [5]: do not inhibit growth or induce cell death
- induction of apoptosis / cell death ([5]; listed as siRNA against PVT1): no apoptotic response
- apoptotic levels (nuclear morphology, mitochondrial mass/potential, f-actin) ([6]; cell lines that amplify PVT1, FIG. 10C): increased apoptotic levels, higher than levels of cells treated with paclitaxel
- F-actin content ([6]; cell lines which overamplify PVT1, after PVT1 siRNA): Increased F-actin content
- F-actin content and thereby apoptosis ([7]; cell lines having no increased PVT1 amplification, FIG. 10A): remained low
- apoptotic levels (nuclear morphology, mitochondrial mass/potential, f-actin) ([7]; cell lines that do not amplify PVT1): normal apoptotic levels
